# From ChEMBL document CHEMBL1201862, “PubChem BioAssay data set” (2004)
#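 Cultured in 96-well plates, cells were exposed to test compound for 48 hours across five concentrations. Here, GI50 denotes the concentration required for 50% inhibition of growth.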 Active and inactive are the calls of the source. Cut-off read from the data, not from the text of the source: active = GI50 up to about 1.1 µM and inactive = higher.
# Tests used:
# Test in all cases: growth of human tumour cells (NCI), 48 h
# SF-539 = system: SF-539
# TK-10 = system: TK-10
# KM12 = system: KM12
# MDA-MB-435 = system: MDA-MB-435
# HCT-116 = system: HCT-116
# ACHN = system: ACHN
# NCI-H522 = system: NCI-H522
# HOP-92 = system: HOP-92
# M14 = system: M14
# SK-MEL-28 = system: SK-MEL-28
# SK-MEL-5 = system: SK-MEL-5
# NCI-H226 = system: NCI-H226
# RXF 393 = system: RXF 393
# Malme-3M = system: Malme-3M
# T47D = system: T47D
# MDA-MB-231 = system: MDA-MB-231
# HOP-62 = system: HOP-62
# PC-3 = system: PC-3
# SNB-75 = system: SNB-75
# U-251 = system: U-251
# 786-0 = system: 786-0
# MCF7 = system: MCF7
# OVCAR-8 = system: OVCAR-8
# SK-MEL-2 = system: SK-MEL-2
# SW-620 = system: SW-620
# BT-549 = system: BT-549
# K562 = system: K562
# MOLT-4 = system: MOLT-4
# HCC 2998 = system: HCC 2998
# HCT-15 = system: HCT-15
# NCI-H460 = system: NCI-H460
# UACC-257 = system: UACC-257
# HL-60 = system: HL-60
# SF-295 = system: SF-295
# COLO 205 = system: COLO 205
# MDA-N = system: MDA-N
# IGROV-1 = system: IGROV-1
# RPMI-8226 = system: RPMI-8226
# NCI/ADR-RES = system: NCI/ADR-RES
# SN12C = system: SN12C
# OVCAR-5 = system: OVCAR-5
# UO-31 = system: UO-31
# Hs-578T = system: Hs-578T
# DU-145 = system: DU-145
# SF-268 = system: SF-268
# SK-OV-3 = system: SK-OV-3
# A549 = system: A549
# UACC-62 = system: UACC-62
# OVCAR-3 = system: OVCAR-3
# A498 = system: A498
# CAKI-1 = system: CAKI-1
# CCRF-CEM = system: CCRF-CEM
# NCI-H23 = system: NCI-H23
# SR = system: SR
# HT-29 = system: HT-29
# SNB-19 = system: SNB-19
# LOX IMVI = system: LOX IMVI
# EKVX = system: EKVX
compound,measurement,setting,value
O=c1cc(-c2ccccc2)[nH]c2ccc(N3CCCC3)cc12,GI50,SF-539,0.0123 µM (active)
same,GI50,TK-10,5.62 µM (inactive)
same,GI50,KM12,0.039 µM (active)
same,GI50,MDA-MB-435,< 0.01 µM (active)
same,GI50,HCT-116,< 0.0113 µM (active)
same,GI50,ACHN,0.0222 µM (active)
same,GI50,NCI-H522,< 0.01 µM (active)
same,GI50,HOP-92,0.037 µM (active)
same,GI50,M14,< 0.0123 µM (active)
same,GI50,SK-MEL-28,0.0533 µM (active)
same,GI50,SK-MEL-5,0.0366 µM (active)
same,GI50,NCI-H226,0.0266 µM (active)
same,GI50,RXF 393,0.0196 µM (active)
same,GI50,Malme-3M,> 100 µM (inactive)
same,GI50,T47D,> 100 µM (inactive)
same,GI50,MDA-MB-231,0.103 µM (active)
same,GI50,HOP-62,0.0163 µM (active)
same,GI50,PC-3,0.0282 µM (active)
same,GI50,SNB-75,40.6 µM (inactive)
same,GI50,U-251,0.0102 µM (active)
same,GI50,786-0,< 0.0114 µM (active)
same,GI50,MCF7,4.58 µM (inactive)
same,GI50,OVCAR-8,0.0365 µM (active)
same,GI50,SK-MEL-2,0.0484 µM (active)
same,GI50,SW-620,< 0.01 µM (active)
same,GI50,BT-549,> 100 µM (inactive)
same,GI50,K562,< 0.01 µM (active)
same,GI50,MOLT-4,0.0794 µM (active)
same,GI50,HCC 2998,0.172 µM (active)
same,GI50,HCT-15,0.0743 µM
same,GI50,NCI-H460,0.0275 µM (active)
same,GI50,UACC-257,30.4 µM (inactive)
same,GI50,HL-60,< 0.01 µM (active)
same,GI50,SF-295,< 0.01 µM (active)
same,GI50,COLO 205,0.0196 µM (active)
same,GI50,MDA-N,< 0.01 µM (active)
same,GI50,IGROV-1,0.267 µM (active)
same,GI50,RPMI-8226,0.0366 µM (active)
same,GI50,NCI/ADR-RES,0.0159 µM (active)
same,GI50,SN12C,0.0451 µM (active)
same,GI50,OVCAR-5,31.6 µM (inactive)
same,GI50,UO-31,> 100 µM (inactive)
same,GI50,Hs-578T,< 0.0173 µM (active)
same,GI50,DU-145,0.0459 µM (active)
same,GI50,SF-268,0.173 µM (active)
same,GI50,SK-OV-3,0.0466 µM (active)
same,GI50,A549,0.0555 µM (active)
same,GI50,UACC-62,< 0.01 µM (active)
same,GI50,OVCAR-3,0.0272 µM (active)
same,GI50,A498,0.0272 µM (active)
same,GI50,CAKI-1,< 0.0175 µM (active)
same,GI50,CCRF-CEM,< 0.0149 µM (active)
same,GI50,NCI-H23,0.299 µM (active)
same,GI50,SR,0.0184 µM (active)
same,GI50,HT-29,0.0146 µM (active)
same,GI50,SNB-19,0.0217 µM (active)
same,GI50,LOX IMVI,< 0.0137 µM (active)
CCOC(=O)NC(Nc1ccc([N+](=O)[O-])cc1)(C(F)(F)F)C(F)(F)F,GI50,SF-539,> 100 µM (inactive)
same,GI50,TK-10,69.8 µM (inactive)
same,GI50,KM12,82.2 µM (inactive)
same,GI50,MDA-MB-435,21.3 µM (inactive)
same,GI50,HCT-116,59.8 µM (inactive)
same,GI50,ACHN,> 100 µM (inactive)
same,GI50,NCI-H522,25.1 µM (inactive)
same,GI50,HOP-92,31.1 µM (inactive)
same,GI50,M14,60.4 µM (inactive)
same,GI50,SK-MEL-28,> 100 µM (inactive)
same,GI50,SK-MEL-5,81.3 µM (inactive)
same,GI50,NCI-H226,40.1 µM (inactive)
same,GI50,RXF 393,12 µM (inactive)
same,GI50,Malme-3M,> 100 µM (inactive)
same,GI50,T47D,58.3 µM (inactive)
same,GI50,MDA-MB-231,94.2 µM (inactive)
same,GI50,HOP-62,> 100 µM (inactive)
same,GI50,PC-3,53.1 µM (inactive)
same,GI50,SNB-75,> 100 µM (inactive)
same,GI50,U-251,85.9 µM (inactive)
same,GI50,786-0,> 100 µM (inactive)
same,GI50,MCF7,60.7 µM (inactive)
same,GI50,OVCAR-8,> 100 µM (inactive)
same,GI50,SK-MEL-2,> 100 µM (inactive)
same,GI50,SW-620,> 100 µM (inactive)
same,GI50,BT-549,96.2 µM (inactive)
same,GI50,K562,53.8 µM (inactive)
same,GI50,MOLT-4,54.2 µM (inactive)
same,GI50,EKVX,75.5 µM (inactive)
same,GI50,HCC 2998,> 100 µM (inactive)
same,GI50,HCT-15,70.6 µM
same,GI50,NCI-H460,40.9 µM (inactive)
same,GI50,UACC-257,70.3 µM (inactive)
same,GI50,HL-60,54.1 µM (inactive)
same,GI50,SF-295,> 100 µM (inactive)
same,GI50,COLO 205,> 100 µM (inactive)
same,GI50,MDA-N,22 µM (inactive)
same,GI50,IGROV-1,70.5 µM (inactive)
same,GI50,RPMI-8226,99.3 µM (inactive)
same,GI50,NCI/ADR-RES,30.8 µM (inactive)
same,GI50,SN12C,> 100 µM (inactive)
same,GI50,OVCAR-5,> 100 µM (inactive)
same,GI50,UO-31,27 µM (inactive)
same,GI50,Hs-578T,33.9 µM (inactive)
same,GI50,DU-145,> 100 µM (inactive)
same,GI50,SF-268,> 100 µM (inactive)
same,GI50,SK-OV-3,56.5 µM (inactive)
same,GI50,A549,45 µM (inactive)
same,GI50,UACC-62,95.1 µM (inactive)
same,GI50,OVCAR-3,65.8 µM (inactive)
same,GI50,A498,91.2 µM (inactive)
same,GI50,CAKI-1,82.4 µM (inactive)
same,GI50,CCRF-CEM,> 100 µM (inactive)
same,GI50,NCI-H23,> 100 µM (inactive)
same,GI50,SR,34.2 µM (inactive)
same,GI50,HT-29,> 100 µM (inactive)
same,GI50,SNB-19,> 100 µM (inactive)
same,GI50,LOX IMVI,75.3 µM (inactive)
